Measured values published in PubChem BioAssay (NCI).
Several values for one entry are separate records, joined by “and”; a condition that tells them apart may be missing. Identical values can stand only once.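 1) Cells in 96-well plates. 2) Compound, 48 h, 5 concentrations. 3) Linear interpolation between surrounding doses. 4) Unreached endpoint = highest concentration. GI50 = concentration required for 50% inhibition of growth. TGI: concentration producing complete growth inhibition.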

Legend:
Experiment in all cases: inhibition of tumour cell growth, NCI panel, 48 h
SK-OV-3 ovarian = system: SK-OV-3 ovarian
SNB-19 CNS = system: SNB-19 CNS
MOLT-4 leukemia = system: MOLT-4 leukemia
SK-MEL-2 melanoma = system: SK-MEL-2 melanoma
ACHN renal = system: ACHN renal
U251 CNS = system: U251 CNS
SN12C renal = system: SN12C renal
OVCAR-5 ovarian = system: OVCAR-5 ovarian
COLO 205 colon = system: COLO 205 colon
A498 renal = system: A498 renal

| SMILES | TGI (SK-OV-3 ovarian) | TGI (SNB-19 CNS) | TGI (MOLT-4 leukemia) | TGI (SK-MEL-2 melanoma) | TGI (ACHN renal) | TGI (U251 CNS) | TGI (SN12C renal) | TGI (OVCAR-5 ovarian) | TGI (COLO 205 colon) | GI50 (A498 renal) | TGI (A498 renal) | GI50 (SK-OV-3 ovarian) | GI50 (SNB-19 CNS) | GI50 (MOLT-4 leukemia) | GI50 (SK-MEL-2 melanoma) | GI50 (ACHN renal) | GI50 (U251 CNS) | GI50 (SN12C renal) | GI50 (OVCAR-5 ovarian) | GI50 (COLO 205 colon) |
| --- | --- | --- | --- | --- | --- | --- | --- | --- | --- | --- | --- | --- | --- | --- | --- | --- | --- | --- | --- | --- |
| COc1cccc(C(=O)O)c1Cc1cccc2ccccc12 | > 100 µM | > 100 µM | > 100 µM | > 100 µM | > 100 µM | > 100 µM | > 100 µM | > 100 µM | > 100 µM | – | – | – | – | – | – | – | – | – | – | – |
| CCCCCCCCCCCCCCCC[N+](C)(C)C | 1.35 µM and 6.2 µM | 0.255 µM | 0.346 µM and 2.8 µM | 1.17 µM | 1.61 µM and 4.03 µM | 0.271 µM and 1.97 µM | 1.07 µM and 4.56 µM | 0.61 µM and 4.06 µM | 0.295 µM and 2.75 µM | 1.96 µM | 5.25 µM | 0.314 µM and 2.12 µM | 0.129 µM | 0.157 µM and 1.17 µM | 0.314 µM | 0.332 µM and 1.44 µM | 0.139 µM and 0.567 µM | 0.285 µM and 2.06 µM | 0.196 µM and 1.23 µM | 0.16 µM and 1.19 µM |
| CN1CCN(c2ccc3nc(-c4ccc5nc(-c6ccc(C(F)(F)F)cc6)[nH]c5c4)[nH]c3c2)CC1 | – | – | 4.96 µM | 3.5 µM | 17.7 µM | 3.04 µM | 3.96 µM | 6.58 µM | 2.93 µM | 10.7 µM | 29.6 µM | – | – | 2.33 µM | 1.87 µM | 3.94 µM | 1.62 µM | 1.9 µM | 2.68 µM | 1.37 µM |
| C/C(=C\c1ccccc1)C(O)S(=O)(=O)O (stereo unspecified) | > 100 µM | > 100 µM | > 100 µM | > 100 µM | > 100 µM | > 100 µM | > 100 µM | > 100 µM | > 100 µM | – | > 100 µM | – | – | – | – | – | – | – | – | – |
| S=C1SC2(CCCCCC2)NC2=C1CCCCC2 | > 100 µM | 87.5 µM | 66.8 µM | 47.4 µM | > 100 µM | > 100 µM | > 100 µM | > 100 µM | 35.8 µM | – | – | – | – | – | – | – | – | – | – | – |
| O=C(O)C1(C(=O)O)CCN(S(=O)(=O)c2ccccc2)CC1 | > 100 µM | > 100 µM | > 100 µM | > 100 µM | > 100 µM | > 100 µM | > 100 µM | > 100 µM | > 100 µM | – | > 100 µM | – | – | – | – | – | – | – | – | – |
| CC(=O)N1C(=O)C(=O)c2cc(Cl)ccc21 | > 100 µM | > 100 µM | > 100 µM | – | > 100 µM | > 100 µM | > 100 µM | > 100 µM | > 100 µM | – | > 100 µM | – | – | – | – | – | – | – | – | – |
| O=C1c2ccccc2C(=O)N1C/C=N/NS(=O)(=O)c1ccc(Cl)cc1 | – | > 100 µM | > 100 µM | > 100 µM | > 100 µM | > 100 µM | > 100 µM | – | > 100 µM | – | > 100 µM | – | – | – | – | – | – | – | – | – |
| CN1C(=O)NC2(O)c3ccccc3C(=O)C12O (stereo unspecified) | > 100 µM | > 100 µM | > 100 µM | > 100 µM | – | > 100 µM | – | > 100 µM | > 100 µM | – | – | – | – | – | – | – | – | – | – | – |
| COc1cc([N+](=O)[O-])c(S(=O)(=O)O)cc1-n1nc(-c2ccccc2)n[n+]1-c1cc(S(=O)(=O)[O-])c([N+](=O)[O-])cc1OC | > 100 µM | > 100 µM | > 100 µM | > 100 µM | > 100 µM | > 100 µM | > 100 µM | > 100 µM | > 100 µM | – | – | – | – | – | – | – | – | – | – | – |
| COc1cccc(NC(=O)c2ccc(C(F)(F)F)nc2Nc2ccc(Cl)cc2C)c1 | 27.8 µM | 28.7 µM | 51 µM | 21.9 µM | – | 24.2 µM | 25.7 µM | 20 µM | 25.8 µM | 1.65 µM | 11.9 µM | 13.4 µM | 13.8 µM | 10.2 µM | 10.3 µM | – | 11.9 µM | 12.4 µM | 2.51 µM | 10.4 µM |
| CCCN(CCC)c1ccc(C=O)c(OC)c1 | > 100 µM | > 100 µM | 40.4 µM | – | > 100 µM | > 100 µM | > 100 µM | > 100 µM | 63.4 µM | 1.37 µM | 7.79 µM | 25.8 µM | 29.4 µM | 11.9 µM | – | 21.4 µM | 28.1 µM | 32.7 µM | 19.5 µM | 22.3 µM |
| COc1cc2c(C#N)n3c(c2cc1OC)C(=O)C(c1ccccc1)Oc1ccccc1-3 (stereo unspecified) | > 100 µM | > 100 µM | > 100 µM | – | – | > 100 µM | – | – | – | 1.85 µM | 9.15 µM | 21.1 µM | 3.53 µM | 5.37 µM | – | – | 2.77 µM | – | – | – |
| CCc1nc2cc(/C=C/C(=O)NO)c(F)cc2c(=O)n1CCc1ccccc1 | 5.28 µM | 12.4 µM | > 100 µM | 9.37 µM | 2.9 µM | 3.18 µM | – | 12.6 µM | 3.14 µM | 1.02 µM | 3.39 µM | 1.68 µM | 1.32 µM | 1.03 µM | 2.64 µM | 0.744 µM | 0.872 µM | – | 1.61 µM | 0.497 µM |
| COc1ncnc2c1ncn2C/C(Br)=C(\Br)CCl | 28 µM | 24.5 µM | 25.4 µM | – | 4.92 µM | 3.64 µM | 9.52 µM | 15.2 µM | 3.18 µM | – | – | 14.8 µM | 12.1 µM | 2.91 µM | – | 2.14 µM | 1.74 µM | 2.44 µM | 3.83 µM | 1.73 µM |
| COc1ccc2c(CCNS(=O)(=O)c3ccccc3)c(C(C)=O)[nH]c2c1[N+](=O)[O-] | – | > 100 µM | > 100 µM | > 100 µM | > 100 µM | > 100 µM | > 100 µM | > 100 µM | > 100 µM | – | > 100 µM | – | – | – | – | – | – | – | – | – |
| O=c1c2cc(-c3ccccc3)sc2nc2sc(-c3ccccc3)nn12 | > 100 µM | > 100 µM | > 100 µM | > 100 µM | – | > 100 µM | > 100 µM | > 100 µM | > 100 µM | – | > 100 µM | – | – | – | – | – | – | – | – | – |
| Cn1c(-c2c(N)n(Cc3ccc(Cl)cc3)c3nc(C#N)c(C#N)nc23)nc2ccccc21 | 5.67 µM | 46.5 µM | – | > 50 µM | 6.38 µM | 13 µM | 10.3 µM | 16 µM | 16.4 µM | – | – | 1.89 µM | 12.3 µM | – | > 50 µM | 1.5 µM | 3.76 µM | 2.57 µM | 6.74 µM | 3.13 µM |
